The values that follow come from patent publication US10000438B2, “Small molecule inhibitors of TRPA1” (B.R.A.I.N. Biotechnology Research and Information Network AG, priority 2011, dated 2018).

Like-named read-outs stand apart in the source and are kept apart here.

For assay [1], the target named is T1, TRPA1 (Homo sapiens, UniProt O75762). The experiment in a line: Cell-based calcium assay (Fluo-4 fluorescence) in HEK293 cells expressing recombinant human TRPA1. The arrangement: expressed in transfected cells. On the procedure:
The HEK293 cell line expressing recombinant human TRPA1 under the control of a tetracycline-regulated promoter was used in this assay (cf. example 2). Functional modulation of TRPA1 by the tested compounds was measured and quantified using the calcium sensitive fluorescent probe […] on a fluorescence microplate reader. Activation of TRPA1 by an agonist led to an increase in the intracellular calcium concentration and thus an increase in fluorescence intensity.
Procedure: Cells were cultured in DMEM (high glucose) supplemented with tetracycline-free FCS (10% v/v), L-glutamine (4 mM), blasticidin (15 μg/ml) and hygromycin (100 μg/mL) in a water-saturated atmosphere at 37° C. and 5% CO2. Cells were seeded onto 96-well clear-bottom black-walled assay plates at a density of 70,000 cells per well in 100 μl of cell culture medium. Expression of the ion channel was induced or not induced by addition of tetracycline (1 μg/ml final concentration) to the cell culture medium (while seeding the cells). Calcium influx into the living cells due to channel activation was monitored 24 h later using the calcium sensitive fluorescent probe […] on a fluorescence microplate reader (FlexStation® system, Molecular Devices). Therefore 100 μl Krebs-HEPES (KH) buffer (118 mM NaCl; 4.7 mM KCl; 1.3 mM CaCl2; 1.2 mM MgSO4; 1.2 mM KH2PO4; 4.2 mM NaHCO3; 10 mM Hepes, pH 7.4) supplemented with sulfinpyrazone (250 μM) and […] (4 μM) were added and the cells were incubated for an additional hour in a water-saturated atmosphere at 37° C. and 5% CO2.
Measurement of agonistic activity: Medium was replaced with 200 μl KH buffer supplemented with sulfinpyrazone (250 μM). Subsequently, 50 μl KH buffer supplemented with the agonists or control substances were added. Changes in fluorescence were recorded at 20-26° C.
Measurement of antagonistic activity (screening): Medium was replaced with 150 μl KH buffer supplemented with sulfinpyrazone (250 μM). Subsequently, 50 μl KH buffer supplemented with the screening compounds (50 μM; leading to a final concentration of 10 μM under measurement conditions) or control substances were added and the cells were incubated for 10 min. under assay conditions in the microplate reader. Changes in fluorescence were recorded at 20-26° C. after addition of 50 μl KH buffer supplemented with the TRPA1 agonist menthol (175 μM; leading to a final concentration of 35 μM under measurement conditions). The published TRPA1 antagonist AP-18 (Petrus, 2007) was used as a control for TRPA1-specific […] activity. Subsequently, the inventive compounds were tested for their capacity to reduce signals triggered by addition of propylparaben (EC80=80 μM), retinol (EC80=150 μM), and allyl isothiocyanate (EC80=5 μM) (cf. Table 2).
Analysis: Calcium mobilization was quantified as the change of peak fluorescence (ΔF) over the baseline level (F). The data was analyzed with the software of the microplate reader. Potential TRPA1 antagonists were tested in an effective range of 0.1-50 μM for their capacity to reduce the menthol-evoked signal.

Assay [2] concerns the target T1, TRPA1. Nature of the assay: Blinded in vivo study on the lid-cheek junction, stinging/burning induced by flufenamic acid. Also noted: from tissue; host or cells: facial skin (lid-cheek junction) of human volunteers. The note with it: compound 0.05% pre-incubated on one side of face, placebo on other; flufenamic acid 0.75%; 16 persons, two felt no stimulus. On the procedure: Antagonistic in vivo activity at TRPA1 was tested in a blinded study on the lid-cheek junction of 16 test persons. The ion channel was stimulated using a known TRPA1 agonist: flufenamic acid, a member of the group of NSAIDs (non-steroidal anti-inflammatory drugs) (Hu et al., 2010). The concentration of flufenamic acid was adjusted to a level that induced a pronounced stinging/burning sensation in the majority of the testers (0.75%).
Procedure: One side of the face (the lid-cheek junction) was pre-incubated with the antagonist (compound I.3, 0.05%)—the other side with placebo. Afterwards, flufenamic acid was applied to both sides simultaneously. Testers were asked several questions regarding their individual perception of irritation.
Analysis: Testers were asked if they could feel the NSAID-triggered stinging/burning. The strength of the stimulus was not judged. Then they were asked if they could perceive a difference between the two areas. If the answer was yes, they were asked which side was perceived as more pleasant. The antagonistic effect was graded in three categories: no reduction, reduction and strong reduction of the irritation. 10 out of 14 testers perceived a soothing effect by the use of the antagonist (two individuals felt no stimulus at all).

For another assay, the target named is T2, human TRPM8 (Homo sapiens, UniProt Q7Z2W7).
T2 construct: expressed in transfected cells; host or cells: HEK293 (tetracycline-regulated promoter)
T2 sequence (Q7Z2W7 whole entry): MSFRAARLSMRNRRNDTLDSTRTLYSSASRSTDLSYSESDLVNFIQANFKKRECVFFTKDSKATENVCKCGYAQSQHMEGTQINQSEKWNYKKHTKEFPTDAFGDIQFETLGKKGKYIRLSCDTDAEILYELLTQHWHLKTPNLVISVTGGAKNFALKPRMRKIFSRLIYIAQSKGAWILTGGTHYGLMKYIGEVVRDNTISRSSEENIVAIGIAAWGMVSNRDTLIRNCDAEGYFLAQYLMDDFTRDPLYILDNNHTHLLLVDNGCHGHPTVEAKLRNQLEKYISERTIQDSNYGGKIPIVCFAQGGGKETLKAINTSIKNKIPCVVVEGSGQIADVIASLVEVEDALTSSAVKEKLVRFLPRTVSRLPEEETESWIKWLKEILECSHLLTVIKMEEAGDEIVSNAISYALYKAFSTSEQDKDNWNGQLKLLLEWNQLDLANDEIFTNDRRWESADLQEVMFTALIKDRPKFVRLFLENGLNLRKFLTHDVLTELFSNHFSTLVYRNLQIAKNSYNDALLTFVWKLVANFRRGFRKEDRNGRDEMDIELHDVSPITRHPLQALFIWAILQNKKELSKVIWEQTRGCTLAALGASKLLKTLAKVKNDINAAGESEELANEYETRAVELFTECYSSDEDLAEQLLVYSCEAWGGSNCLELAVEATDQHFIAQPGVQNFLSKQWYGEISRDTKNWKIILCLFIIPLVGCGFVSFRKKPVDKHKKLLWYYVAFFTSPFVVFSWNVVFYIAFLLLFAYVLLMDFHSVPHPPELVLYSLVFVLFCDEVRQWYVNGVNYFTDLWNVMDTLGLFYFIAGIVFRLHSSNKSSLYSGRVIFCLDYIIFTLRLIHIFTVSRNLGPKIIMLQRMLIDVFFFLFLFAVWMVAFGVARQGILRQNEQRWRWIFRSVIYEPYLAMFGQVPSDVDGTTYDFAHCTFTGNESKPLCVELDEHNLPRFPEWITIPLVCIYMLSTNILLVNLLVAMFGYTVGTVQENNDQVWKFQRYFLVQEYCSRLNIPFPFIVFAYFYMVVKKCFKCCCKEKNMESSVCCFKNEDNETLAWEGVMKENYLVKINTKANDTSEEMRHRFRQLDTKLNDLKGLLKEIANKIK
The experiment in a line: Test for cross-selectivity on TRPM8: calcium assay in HEK293 cells expressing recombinant human TRPM8. The assay is classed as cell-based. On the procedure: The test for cross-selectivity of the compounds on TRPM8 was performed in much the same way as the initial screening on TRPA1 (described in example 3). A HEK293 cell line expressing recombinant human TRPM8 under the control of a tetracycline-regulated promoter was used. Cells were cultured under the conditions mentioned in example 3. Functional modulation of TRPM8 was measured and quantified using the calcium sensitive fluorescent probe Fluo-4 AM on a fluorescence microplate reader. The assay was performed as described in example 3. Changes in fluorescence were recorded at 26-30° C. after addition of the compounds and/or the TRPM8 agonist menthol (EC80=12 μM). Dose-response curves are shown in FIGS. 5 to 9 (calcium assay) against menthol, which is known to trigger both TRPA1 as well as TRPM8. In particular, the antagonistic activity of compound I.3, II.3, III.3, IV.3 and V.3 at TRPA1 (open circles, continuous line) as well as the antagonistic activity of said compounds at TRPM8 (filled squares, dotted line) was measured and compared. Activation of the two ion channels was triggered by addition of menthol (EC80[TRPA1]=35 μM and EC80[TRPM8]=12 μM). The receptor signals were normalized to the pure menthol signal in each case.

Assay [3] concerns the target T1, TRPA1. Nature of the assay: Cell-based (label-free) impedance assay in HaCaT cells.
Setting [4] is: agonist allyl isothiocyanate at EC80 (5 μM), read-out: Antagonistic activity (IC50) against Allyl isothiocyanate.
[5] abbreviates: agonist menthol at EC80 (35 μM final), read-out: Antagonistic activity (IC50) against Menthol.
Where [6] appears, read: agonist propylparaben at EC80 (80 μM), read-out: Antagonistic activity (IC50) against Propylparaben.
The mark [7] stands for this setting: agonist retinol at EC80 (150 μM), read-out: Antagonistic activity (IC50) against Retinol.

One may read the IC50 as the point on the concentration scale where inhibition reaches its midpoint.

T1 sequence (O75762 whole entry): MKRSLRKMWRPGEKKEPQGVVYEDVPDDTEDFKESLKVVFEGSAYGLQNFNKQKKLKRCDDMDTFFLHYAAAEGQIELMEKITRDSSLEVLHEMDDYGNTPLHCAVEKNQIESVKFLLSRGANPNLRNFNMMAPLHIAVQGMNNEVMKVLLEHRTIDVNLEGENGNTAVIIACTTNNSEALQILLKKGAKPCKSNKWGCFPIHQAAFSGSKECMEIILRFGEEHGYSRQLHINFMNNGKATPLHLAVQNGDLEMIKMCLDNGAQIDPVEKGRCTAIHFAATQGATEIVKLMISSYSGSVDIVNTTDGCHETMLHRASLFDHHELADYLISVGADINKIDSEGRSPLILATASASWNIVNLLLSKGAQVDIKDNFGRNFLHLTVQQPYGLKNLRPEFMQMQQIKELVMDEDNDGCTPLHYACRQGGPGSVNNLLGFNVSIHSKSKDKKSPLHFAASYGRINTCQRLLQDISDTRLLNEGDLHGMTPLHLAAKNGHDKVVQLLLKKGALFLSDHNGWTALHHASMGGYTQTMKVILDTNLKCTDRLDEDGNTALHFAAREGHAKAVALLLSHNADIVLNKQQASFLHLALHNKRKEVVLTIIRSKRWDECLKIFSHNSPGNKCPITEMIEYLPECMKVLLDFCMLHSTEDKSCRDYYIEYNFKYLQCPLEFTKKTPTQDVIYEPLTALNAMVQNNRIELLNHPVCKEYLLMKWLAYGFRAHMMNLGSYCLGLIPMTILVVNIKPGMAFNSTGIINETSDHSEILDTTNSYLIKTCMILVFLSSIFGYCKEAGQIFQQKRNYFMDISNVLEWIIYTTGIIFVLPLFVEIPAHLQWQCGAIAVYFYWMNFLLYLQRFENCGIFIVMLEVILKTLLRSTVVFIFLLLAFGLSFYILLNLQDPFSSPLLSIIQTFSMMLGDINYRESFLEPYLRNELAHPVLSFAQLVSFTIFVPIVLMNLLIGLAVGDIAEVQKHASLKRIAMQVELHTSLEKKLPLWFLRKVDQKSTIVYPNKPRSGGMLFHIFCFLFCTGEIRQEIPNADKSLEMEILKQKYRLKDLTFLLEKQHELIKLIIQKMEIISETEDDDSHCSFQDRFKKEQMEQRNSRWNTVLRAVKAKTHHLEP

As to `COc1cc(C(=O)OC2CC3CCC2(C)C3(C)C)ccc1OC(C)=O` (centres unmarked) [Compound I.3], the half-inhibitory concentration (IC50) at TRPA1 [1] (setting [4]) amounted to 2.5 µM; at TRPA1 [1] (setting [5]) it was 3.5 µM; at TRPA1 [1] (setting [6]), 4.7 µM; on TRPA1 [1] (setting [7]) it was 3.4 µM. Besides, the “Testers who perceived a soothing effect by the use of the antagonist” value at TRPA1 [2] was 10 out of 14.
As to `COC(=O)c1ccc(/C=C(\C#N)C(=O)Nc2ccccc2F)cc1` [Compound III.3], the IC50 is 1.2 µM on TRPA1 [1] (setting [4]), 0.1 µM at TRPA1 [1] (setting [5]), 0.4 µM at TRPA1 [1] (setting [6]) and 0.4 µM on TRPA1 [1] (setting [7]).
In the case of `Cc1cc(/C=C2\C(=N)N3N=C(CC(=O)N4CCCC4)SC3=NC2=O)c(C)n1-c1cccc(Cl)c1` [Compound IV.3], the IC50 worked out at 3.5 µM at TRPA1 [1] (setting [4]), 0.3 µM at TRPA1 [1] (setting [5]), 4.3 µM on TRPA1 [1] (setting [6]) and 3.3 µM on TRPA1 [1] (setting [7]).
As to `CC(C)c1ccc2c(c1)CCC1[C@](C)(C(=O)O)CCC[C@]21C` (some centres unmarked) [Compound V.3], the IC50 at TRPA1 [1] (setting [4]) is 26 µM; at TRPA1 [1] (setting [5]), 4.5 µM; at TRPA1 [1] (setting [6]) it was 26 µM; on TRPA1 [1] (setting [7]), 14 µM.
As for `C=CCN=C=S` [allyl isothiocyanate, reference compound], the “Agonistic efficacy at TRPA1 (EC80)” value at TRPA1 [1] was 5 µM.
For the compound `CC1CCC(C(C)C)C(O)C1` (centres unmarked) [menthol, 2-isopropyl-5-methyl-cyclohexanol, reference compound], the “Agonistic efficacy at TRPM8 (EC80)” value at human TRPM8 was 12 µM. On TRPA1 [1], the “Agonistic efficacy at TRPA1 (EC80)” value turned out to be 35 µM.
With `CCCOC(=O)c1ccc(O)cc1` [propylparaben, reference compound], the “Agonistic efficacy at TRPA1 (EC80)” value at TRPA1 [1] was found to be 80 µM; at TRPA1 [3] it was 200 µM.
For `CC1=C(/C=C/C(C)=C/C=C/C(C)=C/CO)C(C)(C)CCC1` [retinol, reference compound], on TRPA1 [1], the “Agonistic efficacy at TRPA1 (EC80)” value was determined as 150 µM.
